Results published in US10881679B2, “Application of a phillyrin/phillygeninin composition in preparing a medicine or health care product for alleviating or/and treating viral diseases, and medicine or health care product for treating viral diseases” (priority 2014, dated 2021).
Marks after values point to notes of the source that are not given here.

What was measured:
Vero cells = experiment: Cytotoxicity test (MTT) on Vero cells; format: cell-based, African green monkey; settings: 72 h
Protocol: Cytotoxicity test: the drugs were diluted according to the concentrations shown in table 1-1 for determination of cytotoxicity. […] In addition, 6 wells were set up as normal control group (without drugs) while another 6 pores as blank control group (medium only). Cells were grown in a 37° C. incubator under 5% CO2. […] After 72 h, 20 μL MTT solution (5 mg·mL^−1) was added into each well to continue incubation for 4 h. The culture medium in each well was sucked and discarded, 100 μL DMSO was added to each well. Then the culture was shaken for 5 min, measured OD value at 492 nm to calculate the cell survival ratio. The cell survival ratio was analyzed using a Probit regression model in SPSS 18.0 statistical software, and the maximal nontoxic concentration (TC0) and median toxic concentration (TC50) of drugs against Vero cells were calculated.

[1] = test system: rat paw swelling induced by carrageenin; experiment: Rat paw swelling induced by carrageenin; format: in vivo, Wistar rats; settings: 10.0 mg/kg
Protocol: Each group has 10 rats. Rats in each group were all administered by […] through the sublingual vein. Normal volume of the right hind paw of each rat in each group was measured in capillary magnification measurement method. In order to avoid errors, the measurement should be carried out in a fixed position and operated by the same person before and after administration. A mean of the two measurement values was taken as the normal volume of the right hind paw of a rat before administration. […] The difference between the groups was compared by inter-group t test processing through the difference percentage (swelling ratio) of the paw volume before and after the induced rat inflammation. [formula] Results

influenza virus [2] = format: in vivo, Kunming mice; settings: 13.0 mg/kg/d i.g. 5 days
influenza virus [3] = format: in vivo, Kunming mice; settings: 13.0 mg/kg/d i.g. 5 days; remark: listed apart in the source
parainfluenza virus [4] = format: in vivo, Kunming mice; settings: 13.0 mg/kg/d i.g. 5 days
enterovirus EV71 = experiment: Impact on virus-induced cytopathic effect in Vero cells (MTT): EV71; format: cell-based; settings: EV71 100TCID50, Vero, 72 h; drug g/L as Table 1-2
[5] = test system: Coxsackie virus B3 (CVB3); experiment: Impact on virus-induced cytopathic effect in Vero cells (MTT): CVB3; format: cell-based; settings: CVB3 100TCID50, Vero, 72 h; drug g/L as Table 1-2
[6] = test system: rabbit fever induced by typhoid and paratyphoid vaccine; experiment: Rabbit fever induced by typhoid and paratyphoid vaccine; format: in vivo, Japanese big-ear white rabbits; settings: 5.2 mg/kg i.g.
Protocol: Male Japanese big-ear white rabbits with a weight 1.5˜2.0 kg were used. Before the test, WSC-411P portable digital thermometer was used to measure the normal rectal temperature twice (with certain interval for each time), and the average value was taken as the normal body temperature of rabbits. […] Each group has 6 rabbits, and the test was repeated 3 times for each group. Rabbits were fixed into a fixator. The blank control group was intravenously injected with normal saline of 1 ml/kg via the ear margin; The model control group and each drug group were intravenously injected with typhoid and paratyphoid vaccines of 0.8 ml/kg via the ear margin. After the body temperatures of the rabbits increased by 1° C. or more (requiring about 1˜1.5 h, and this test was limited to 1 h), the blank control group and the model group were administered intragastrically with 0.5% carboxymethycellulose of 1 ml/kg, and the drug groups were administered intragastrically with phillyrin/phillygeninin compositions and paracetamol respectively. The rectal temperature was measured after administration for 30, 60, 90, 120, 180 and 240 min to observe the changes in the body temperature, and difference between the groups was compared by inter-group t test processing through antipyretic percentage.

adenovirus (ADV) = experiment: Impact on virus-induced cytopathic effect in Vero cells (MTT): ADV; format: cell-based; settings: ADV 100TCID50, Vero, 72 h; drug g/L as Table 1-2
[7] = test system: Herpes zoster simplex viruses type I (HSV-I); experiment: Impact on virus-induced cytopathic effect in Vero cells (MTT): HSV-I; format: cell-based; settings: HSV-I 100TCID50, Vero, 72 h; drug g/L as Table 1-2
parainfluenza virus [8] = experiment: Impact on virus-induced cytopathic effect in Vero cells (MTT): parainfluenza virus; format: cell-based; settings: parainfluenza virus 100TCID50, Vero, 72 h; drug g/L as Table 1-2
[9] = test system: sweat gland epithelial cells of rat paws; experiment: Sweat secretion of rat paws (histomorphological observation method); format: in vivo, Wistar rats; settings: dose not given; i.g., 1 h after administration
Description: This test is based on a mechanism that when a rat is in an excited state, in addition to the increase of sweat secretion of sweat glands, the morphology of sweat gland epithelial cells changes accordingly. Under an optical microscope, it can be seen that the sweat gland epithelial cell vacuoles increase in number and expand. Under an electron microscope, such expanded vacuoles appear to be mitochondria in the sweat gland epithelial cell swelling, breakage and fusion and expansion of secretory vesicle. Therefore, through histomorphological observation of sweat gland epithelial tissue of a rat paw, secretory activities of the sweat gland can be known.
300 Wistar rats with equal male and female number, weighing 120˜160 g were used. These rats were randomly divided into 30 groups by weight and gender: control groups (0.5% of methyl cellulose), phillygeninin groups, phillyrin groups, low, medium and high dose groups (2.5, 5, 10 mg/kg) of phillyrin/phillygeninin compositions A and B separately, and positive drug pilocarpine groups (35 mg/kg). Each group has 10 rats, the test is repeated 3 times for each group. Pilocarpine solution was administered by subcutaneous injection, the remaining groups were subjected to intragastric administration. After administration of the 0.5% of methyl cellulose in the control group for one hour, after administration of the pilocarpine in the positive drug group for 30 min, and after administration of the phillyrin, the phillygeninin and the phillyrin/phillygeninin composition for one hour, the right hind limb was instantly cut off at the ankle joint to immediately take down the footpad of the right hind limb and placed into 10% of formaldehyde solution. The footpads were fixed, dehydrated, embedded, sliced and stained with HE by using conventional methods. Changes in sweat gland epithelial cells of the rat paws from each group were observed under an optical microscope, to mainly observe the percentage of vacuolization. The differences among the various groups was performed through X^2 test for statistical analysis. The above test was repeated 3 times. Percentage of vacuolization=(the number of vacuolized sweat glands)/(the number of sweat glands observed)×100%.

[10] = 15 min after inflammation induction
[11] = 30 min after inflammation induction
[12] = 60 min after inflammation induction
[13] = 120 min after inflammation induction
[14] = 180 min after inflammation induction
[15] = 240 min after inflammation induction
[16] = 300 min after inflammation induction
[17] = 360 min after inflammation induction

SMILES	half toxic concentration (TC50) (Vero cells) [µg/mL]	maximal non-toxic concentration (TC0) (Vero cells) [g/L]	Swelling percentage (%) [1, 10] [%]	Swelling percentage (%) [1, 11] [%]	Swelling percentage (%) [1, 12] [%]	Swelling percentage (%) [1, 13] [%]	Swelling percentage (%) [1, 14] [%]	Swelling percentage (%) [1, 15] [%]	Swelling percentage (%) [1, 16] [%]	Swelling percentage (%) [1, 17] [%]	Hemagglutination titer (InX) (influenza virus [2])	Inhibition rate (%) of hemagglutination titer (influenza virus [2]) [%]	Lung index (influenza virus [3])	Lung index inhibition rate (influenza virus [3])	Hemagglutination titer (InX) (parainfluenza virus [4])	Inhibition rate (%) of hemagglutination titer (parainfluenza virus [4]) [%]	antiviral effective rate (ER %) (enterovirus EV71)	antiviral effective rate (ER %) [5]	Body temperature ([6]; 30 min after administration) [°C]	antipyretic percentage (%) ([6]; 30 min after administration)	other results
COc1cc([C@H]2OC[C@H]3[C@@H]2CO[C@H]3c2ccc(OC)c(OC)c2)ccc1O [Phillygeninin, phillygeninin]	297	0.011	14.9 ± 6.13	21.9 ± 9.72	27.1 ± 13.5	30.7 ± 10.2	33.8 ± 12.1	31.0 ± 11.3	35.8 ± 13.5	36.4 ± 10.2	22.61 ± 1.059	30.22	1.302 ± 0.046	12.51	23.79	28.15	75.86** %	50.89%	41.06 ± 0.26	−0.10 ± 0.11	Body temperature ([6]; 60 min after administration): 40.86 ± 0.21 °C; antipyretic percentage (%) ([6]; 60 min after administration): −0.49 ± 0.10%; Body temperature ([6]; 90 min after administration): 40.74 ± 0.22 °C; antipyretic percentage (%) ([6]; 90 min after administration): −0.77 ± 0.22%; Body temperature ([6]; 120 min after administration): 40.65 ± 0.27 °C; antipyretic percentage (%) ([6]; 120 min after administration): −1.00 ± 0.18 %; Body temperature ([6]; 180 min after administration): 40.49 ± 0.23 °C; antipyretic percentage (%) ([6]; 180 min after administration): −1.39 ± 0.17 %; Body temperature ([6]; 240 min after administration): 40.30 ± 0.25 °C; antipyretic percentage (%) ([6]; 240 min after administration): −1.85 ± 0.15 %; antiviral effective rate (ER %) (adenovirus (ADV)): 50.61%; antiviral effective rate (ER %) [7]: 84.30** %; antiviral effective rate (ER %) (parainfluenza virus [8]): 80.72** %; Number of sweat glands of vacuole [9]: 79; percentage of vacuolization (%) [9]: 20.26** %
COc1ccc([C@H]2OCC3C2CO[C@H]3c2ccc(O[C@@H]3OC(CO)[C@@H](O)[C@H](O)C3O)c(OC)c2)cc1OC (stereo partly shown) [phillyrin]	550	0.0066	12.9 ± 8.41	19.9 ± 9.55	21.8 ± 11.8	28.9 ± 14.0	30.8 ± 15.4	29.9 ± 11.1	33.5 ± 10.0	32.2 ± 11.9	22.06 ± 1.120	31.90	1.280 ± 0.040	14.00	23.17	30.01	84.85** %	75.27** %	40.83 ± 0.26	−0.37 ± 0.15	Body temperature ([6]; 60 min after administration): 40.58 ± 0.21 °C; antipyretic percentage (%) ([6]; 60 min after administration): −0.61 ± 0.12%; Body temperature ([6]; 90 min after administration): 40.43 ± 0.22 °C; antipyretic percentage (%) ([6]; 90 min after administration): −0.97 ± 0.27%; Body temperature ([6]; 120 min after administration): 40.37 ± 0.27 °C; antipyretic percentage (%) ([6]; 120 min after administration): −1.13 ± 0.14 %; Body temperature ([6]; 180 min after administration): 40.16 ± 0.23 °C; antipyretic percentage (%) ([6]; 180 min after administration): −1.65 ± 0.12 %; Body temperature ([6]; 240 min after administration): 39.92 ± 0.25 °C; antipyretic percentage (%) ([6]; 240 min after administration): −2.22 ± 0.11 %; antiviral effective rate (ER %) (adenovirus (ADV)): 75.14** %; antiviral effective rate (ER %) [7]: 85.00** %; antiviral effective rate (ER %) (parainfluenza virus [8]): 84.96** %; Number of sweat glands of vacuole [9]: 86; percentage of vacuolization (%) [9]: 22.15** %
